Series [1] can be described thus: Metabolic stability in human liver microsomes assessed as compound remaining at 1 uM preincubated for 10 mins followed by NADPH addition by LC-MS analysis. To be noted: read-out: Stability. It is filed as ADME, Microsome.
Series [2] addresses T1, GABA-A receptor; alpha-1/beta-2/gamma-2 (Homo sapiens, UniProt P14867+P18507+P47870).
T1 sequence (P14867 whole entry): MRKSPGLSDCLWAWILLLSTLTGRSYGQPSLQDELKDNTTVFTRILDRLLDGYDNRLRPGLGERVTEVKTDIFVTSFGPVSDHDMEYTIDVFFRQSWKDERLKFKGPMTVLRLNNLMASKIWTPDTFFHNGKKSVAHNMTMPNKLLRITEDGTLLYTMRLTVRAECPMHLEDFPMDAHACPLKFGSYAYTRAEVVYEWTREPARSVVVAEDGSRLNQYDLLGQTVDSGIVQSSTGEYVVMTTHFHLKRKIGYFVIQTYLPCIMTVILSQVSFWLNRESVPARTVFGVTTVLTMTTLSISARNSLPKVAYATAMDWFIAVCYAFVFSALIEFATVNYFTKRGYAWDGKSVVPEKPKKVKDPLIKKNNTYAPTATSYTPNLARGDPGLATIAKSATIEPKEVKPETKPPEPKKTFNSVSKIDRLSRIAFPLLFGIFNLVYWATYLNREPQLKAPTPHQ
T1 sequence (P47870 whole entry): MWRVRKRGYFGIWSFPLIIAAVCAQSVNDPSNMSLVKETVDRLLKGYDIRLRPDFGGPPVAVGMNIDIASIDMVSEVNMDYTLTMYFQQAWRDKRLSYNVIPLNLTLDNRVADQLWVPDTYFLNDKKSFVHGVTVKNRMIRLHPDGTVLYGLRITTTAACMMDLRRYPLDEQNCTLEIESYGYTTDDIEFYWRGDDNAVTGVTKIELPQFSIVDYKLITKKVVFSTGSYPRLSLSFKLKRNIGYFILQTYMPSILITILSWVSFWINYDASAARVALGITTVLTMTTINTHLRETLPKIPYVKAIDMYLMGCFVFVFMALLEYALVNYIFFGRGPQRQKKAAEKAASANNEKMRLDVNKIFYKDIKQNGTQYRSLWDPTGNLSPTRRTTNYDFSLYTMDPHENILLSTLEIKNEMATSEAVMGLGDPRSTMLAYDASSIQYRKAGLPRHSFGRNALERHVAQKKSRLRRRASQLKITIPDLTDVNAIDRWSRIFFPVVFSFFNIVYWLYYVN
T1 sequence (P18507 whole entry): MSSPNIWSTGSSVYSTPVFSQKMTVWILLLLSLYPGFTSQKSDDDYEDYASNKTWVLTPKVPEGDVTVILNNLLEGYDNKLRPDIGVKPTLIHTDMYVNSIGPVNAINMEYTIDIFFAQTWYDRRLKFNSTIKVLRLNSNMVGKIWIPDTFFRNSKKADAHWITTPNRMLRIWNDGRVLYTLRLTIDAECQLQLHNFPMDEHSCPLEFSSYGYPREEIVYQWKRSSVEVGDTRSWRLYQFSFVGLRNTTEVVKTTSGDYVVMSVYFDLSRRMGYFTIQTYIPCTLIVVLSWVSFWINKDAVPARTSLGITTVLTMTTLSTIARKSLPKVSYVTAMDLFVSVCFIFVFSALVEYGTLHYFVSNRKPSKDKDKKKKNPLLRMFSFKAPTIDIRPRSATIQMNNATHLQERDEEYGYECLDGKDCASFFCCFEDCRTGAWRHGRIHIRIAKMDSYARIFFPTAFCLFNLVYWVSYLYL
The series is described as follows: Positive allosteric modulation of synaptic alpha1beta2gamma2 GABA-A receptor (unknown origin) transfected in LTK cells assessed as potentiation of GABA-induced peak current amplitude at -80 mV holding potential preincubated for 30 secs followed by GABA stimulation for 2 secs by Q-patch assay. It is filed as cell-based.

The target in series [3] is Gamma-aminobutyric acid receptor subunit alpha-4/beta3/delta (Homo sapiens) (UniProt P28472+P48169+O14764). The series is described as follows: Positive allosteric modulation of extrasynaptic alpha4beta3delta GABA-A receptor (unknown origin) transfected in CHO cells assessed as potentiation of GABA-induced peak current amplitude by measuring maximal efficacy at 0.01 to 10 uM at -80 mV holding potential preincubated for 30 secs followed by GABA stimulation for 2 secs by manual patch assay relative to control. In kind it is cell-based. To be noted: filed as positive allosteric modulator, dose 0.01-10 µM, time 32.0 sec.

The nature of series [4]: Metabolic stability in Sprague-Dawley rat liver microsomes assessed as intrinsic clearance at 1 uM preincubated for 10 mins followed by NADPH addition by LC-MS analysis. It is filed as ADME, Microsome. To be noted: read-out: CLH.
For series [5], the target named is GABA-A receptor; alpha-1/beta-2/gamma-2 (Homo sapiens) (UniProt P14867+P47870+P18507). The series is described as follows: Positive allosteric modulation of synaptic alpha1beta2gamma2 GABA-A receptor (unknown origin) transfected in LTK cells assessed as potentiation of GABA-induced peak current amplitude by measuring maximal efficacy at 0.01 to 10 uM at -80 mV holding potential preincubated for 30 secs followed by GABA stimulation for 2 secs by Q-patch assay relative to control. To be noted: filed as positive allosteric modulator, dose 0.01-10 µM, time 32.0 sec. It is filed as cell-based.

Series [6] is described as follows: Metabolic stability in human liver microsomes assessed as intrinsic clearance at 1 uM preincubated for 10 mins followed by NADPH addition by LC-MS analysis. In kind it is ADME, Microsome. To be noted: read-out: CLH.
The nature of series [7]: Metabolic stability in Sprague-Dawley rat liver microsomes assessed as compound remaining at 1 uM preincubated for 10 mins followed by NADPH addition by LC-MS analysis. In kind it is ADME, Microsome. To be noted: read-out: Stability.
For series [8], the target named is Gamma-aminobutyric acid receptor subunit alpha-4/beta3/delta (Homo sapiens, UniProt O14764+P28472+P48169). The series is described as follows: Positive allosteric modulation of extrasynaptic alpha4beta3delta GABA-A receptor (unknown origin) transfected in CHO cells assessed as potentiation of GABA-induced peak current amplitude at -80 mV holding potential preincubated for 30 secs followed by GABA stimulation for 2 secs by manual patch assay. In kind it is cell-based.
Sequence of Gamma-aminobutyric acid receptor subunit alpha-4/beta3/delta (P28472 whole entry): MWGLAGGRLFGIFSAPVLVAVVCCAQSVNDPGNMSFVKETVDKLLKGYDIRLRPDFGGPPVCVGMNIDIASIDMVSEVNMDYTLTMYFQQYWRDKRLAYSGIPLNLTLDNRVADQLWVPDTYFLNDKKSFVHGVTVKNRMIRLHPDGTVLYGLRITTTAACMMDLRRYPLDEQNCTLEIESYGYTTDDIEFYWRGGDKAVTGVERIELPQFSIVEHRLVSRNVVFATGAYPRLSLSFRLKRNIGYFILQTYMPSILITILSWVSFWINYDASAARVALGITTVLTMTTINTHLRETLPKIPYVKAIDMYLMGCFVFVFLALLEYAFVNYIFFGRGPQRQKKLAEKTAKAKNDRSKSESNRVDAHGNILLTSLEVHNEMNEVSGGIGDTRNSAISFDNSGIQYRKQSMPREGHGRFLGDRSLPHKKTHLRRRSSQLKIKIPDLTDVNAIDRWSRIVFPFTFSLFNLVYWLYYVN
Sequence of Gamma-aminobutyric acid receptor subunit alpha-4/beta3/delta (P48169 whole entry): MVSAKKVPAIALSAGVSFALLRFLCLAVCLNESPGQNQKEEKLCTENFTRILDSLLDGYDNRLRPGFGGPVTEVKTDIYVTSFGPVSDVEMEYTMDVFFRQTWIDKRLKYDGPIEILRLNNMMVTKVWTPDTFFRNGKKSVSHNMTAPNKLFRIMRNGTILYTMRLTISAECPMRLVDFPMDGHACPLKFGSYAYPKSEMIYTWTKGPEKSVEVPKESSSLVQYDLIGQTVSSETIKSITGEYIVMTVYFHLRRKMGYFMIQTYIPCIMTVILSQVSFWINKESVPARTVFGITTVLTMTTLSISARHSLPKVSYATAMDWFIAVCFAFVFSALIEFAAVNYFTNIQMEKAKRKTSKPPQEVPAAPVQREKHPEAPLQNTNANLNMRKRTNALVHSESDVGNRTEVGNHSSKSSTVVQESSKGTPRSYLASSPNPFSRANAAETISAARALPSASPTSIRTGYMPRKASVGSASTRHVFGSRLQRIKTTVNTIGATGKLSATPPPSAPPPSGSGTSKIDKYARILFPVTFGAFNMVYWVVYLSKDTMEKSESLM
Sequence of Gamma-aminobutyric acid receptor subunit alpha-4/beta3/delta (O14764 whole entry): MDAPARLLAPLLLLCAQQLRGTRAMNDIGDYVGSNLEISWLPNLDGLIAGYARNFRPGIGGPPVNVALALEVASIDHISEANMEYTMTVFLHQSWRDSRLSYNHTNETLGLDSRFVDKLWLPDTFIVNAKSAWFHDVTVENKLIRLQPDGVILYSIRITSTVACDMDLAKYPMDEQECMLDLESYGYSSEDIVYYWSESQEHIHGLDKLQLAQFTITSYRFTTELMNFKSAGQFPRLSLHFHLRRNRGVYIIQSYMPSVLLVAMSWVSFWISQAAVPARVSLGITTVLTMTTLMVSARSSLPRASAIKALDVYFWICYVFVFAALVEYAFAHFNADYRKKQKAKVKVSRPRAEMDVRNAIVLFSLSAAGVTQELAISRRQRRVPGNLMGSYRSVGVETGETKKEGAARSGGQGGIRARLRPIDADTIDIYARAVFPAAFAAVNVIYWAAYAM

Series [9] addresses GABA-A receptor; anion channel. Put plainly: Inhibition of [35S]TBPS binding to GABA-A receptor in Sprague-Dawley rat brain cortical membrane incubated for 90 mins by liquid scintillation spectrometry. In kind it is cell membranes, Cortex.
Series [10] can be described thus: Drug concentration in Sprague-Dawley rat brain at 24.4 micromol/kg, IG measured after 2 hrs by LC-MS/MS analysis. It is filed as ADME, tissue-based. To be noted: in vivo, po, dose 24.4 µmol/kg.
Series [11] is described as follows: Drug concentration in Sprague-Dawley rat brain at 24.4 micromol/kg, IG measured after 6 hrs by LC-MS/MS analysis. It is filed as ADME, tissue-based. To be noted: in vivo, po, dose 24.4 µmol/kg.
Series [12] is described as follows: Drug concentration in Sprague-Dawley rat brain at 24.4 micromol/kg, IG measured after 0.5 hrs by LC-MS/MS analysis. It is filed as ADME, tissue-based. To be noted: in vivo, po, dose 24.4 µmol/kg.

As to `COc1cccc(-n2ncn(CC(=O)[C@H]3CC[C@H]4[C@@H]5CC[C@@H]6C[C@](C)(O)CC[C@@H]6[C@H]5CC[C@]34C)c2=O)c1`, the remaining at 1 µM in series [1] was 43.5%; in [7], 14.2%. Further, the results for the EC50 in series [2] and in [8] were 26 nM and 21 nM, respectively. Besides, the maximal effect (Emax) in series [3] is 570%; in [5] it was 410%. The CLint scaled at 1 µM turned out to be 176 mL/min/kg in series [4] and 24 mL/min/kg in series [6].
In the case of `C[C@@]1(O)CC[C@H]2[C@H](CC[C@@H]3[C@@H]2CC[C@]2(C)[C@@H](C(=O)Cn4nnn(-c5cccc(F)c5)c4=O)CC[C@@H]32)C1`, the IC50 in series [9] worked out at 1 nM. Further, the Ct result in [10] (BLD = below limit of detection) is “Bld”; in [11] (BLD = below limit of detection) it was “Bld”; in series [12], 948 nmol/kg. In addition, the remaining at 1 µM in series [1] stood at 70%; in [7] it was 15.6%. In addition, the EC50 was determined as 37 nM in [2] and 23 nM in series [8]. The maximal response (Emax) in [3] was found to be 602%; in [5] it was 1120%. The CLint scaled at 1 µM in series [4] amounted to 105 mL/min/kg; in series [6], 11 mL/min/kg.
`C[C@@]1(O)CC[C@H]2[C@H](CC[C@@H]3[C@@H]2CC[C@]2(C)[C@@H](C(=O)Cn4ccn(-c5cccc(F)c5)c4=O)CC[C@@H]32)C1` yielded an IC50 in [9] of 1 nM. The concentration for a half-maximal effect (EC50) in series [2] was 241 nM; in series [8] it was 139 nM. In addition, the maximal response (Emax) worked out at 552% in [3] and 594% in series [5].
For `C[C@@]1(O)CC[C@H]2[C@H](CC[C@@H]3[C@@H]2CC[C@]2(C)[C@@H](C(=O)Cn4cnn(CC5CC5)c4=O)CC[C@@H]32)C1`, the values for the remaining at 1 µM in [1] and in series [7] were 26.4% and 5.9%, respectively. Further, the concentration for a half-maximal effect (EC50) in [2] is 163 nM; in series [8] it was 122 nM. Further, the figures for the maximal effect (Emax) in [3] and in series [5] were 931% and 727%, respectively. Also, the CLint scaled at 1 µM in series [4] is 280 mL/min/kg; in series [6], 38 mL/min/kg.
Turning to `C[C@@]1(O)CC[C@H]2[C@H](CC[C@@H]3[C@@H]2CC[C@]2(C)[C@@H](C(=O)Cn4cnn(-c5cccc(F)c5)c4=O)CC[C@@H]32)C1`, the IC50 in [9] was found to be 1.2 nM. Moreover, the Ct worked out at 1530 nmol/kg in series [10], 792 nmol/kg in series [11] and 1708 nmol/kg in [12]. Besides, the remaining at 1 µM in series [1] turned out to be 89%; in series [7], 44.5%. For the same molecule, the half-maximal effective concentration (EC50) in series [2] was determined as 56 nM; in series [8], 10 nM. Moreover, the maximal effect (Emax) in series [3] amounted to 440%; in series [5], 566%. Further, the CLint scaled at 1 µM in series [4] worked out at 44 mL/min/kg; in series [6] it was 3.9 mL/min/kg.
`C[C@@]1(O)CC[C@H]2[C@H](CC[C@@H]3[C@@H]2CC[C@]2(C)[C@@H](C(=O)Cn4ncn(-c5cccc(F)c5)c4=O)CC[C@@H]32)C1` showed a half-inhibitory concentration (IC50) in series [9] of 1 nM. In addition, the EC50 in series [2] was found to be 371 nM; in [8] it was 112 nM. Further, the maximal effect (Emax) in series [3] was found to be 334%; in series [5], 1260%.
Regarding `C[C@@]1(O)CC[C@H]2[C@H](CC[C@@H]3[C@@H]2CC[C@]2(C)[C@@H](C(=O)Cn4cnn(-c5ccnc(F)c5)c4=O)CC[C@@H]32)C1`, the values for the Ct in series [10], in series [11] and in series [12] were 1188 nmol/kg, 764 nmol/kg and 708 nmol/kg, respectively. Further, the remaining at 1 µM in [1] was 48.1%; in series [7], 32.2%. The EC50 in [2] amounted to 109 nM; in [8], 56 nM. Also, the maximal response (Emax) turned out to be 913% in series [3] and 775% in [5]. Besides, the results for the CLint scaled at 1 µM in series [4] and in series [6] were 69 mL/min/kg and 23 mL/min/kg, respectively.

For the origin of these results see ChEMBL document CHEMBL5608182, “Synthesis and evaluation of neuroactive steroids with novel pharmacophore at C-21 let identify a compound with advantageous PK profile and higher EC50 and Emax as PAM on GABAA receptor” (Eur J Med Chem, 2024).
